The text below walks through data of article PMC12557383, “Development of a Potent and Functional In Vivo Peptide Competitive Inhibitor for the Toxin MazF” (Journal of Medicinal Chemistry, 2025).

Values joined by “and” are separate entries in the source; they are usually repeats but may differ in a detail not shown here. Equal entries are not always repeated.

B2: MazF_(E24A) (E. coli toxin MazF with glutamic acid 24 replaced with alanine, His6 tag removed) (enzyme)
chain: MVSRYVPDMGDLIWVDFDPTKGSAQAGHRPAVVLSPFMYNNKTGMCLCVPCTTQSKGYPFEVVLSGQERDGVALADQVKSIAWRARGATKKGTVAPEELQLIKAKINVLIG
notes: For NMR the same construct was 15N or 15N/13C labelled; also called the toxin; source: E. coli BL21 (DE3) RIL, purified (Ni-NTA, TEV cleavage, second Ni-NTA, SEC); not shown: His6, N-terminal, cleaved

Data set [1] addresses T1, MazFE24A (Escherichia coli, UniProt P0AE70, E24A).
T1 construct: His6 (N, cleaved yes); made in house; host or cells: E. coli BL21 (DE3) RIL
T1 sequence (P0AE70 1-111 E24A): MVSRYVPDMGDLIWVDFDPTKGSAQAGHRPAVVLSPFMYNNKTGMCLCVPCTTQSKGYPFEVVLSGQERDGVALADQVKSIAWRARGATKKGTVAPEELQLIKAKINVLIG
Kind of data set: Isothermal titration calorimetry (ITC), binding to MazFE24A. Particulars: peptide into MazFE24A, pH about 7.10, one set of sites model. How it is done: Experiments were performed in a Malvern VP-ITC microcalorimeter with a reference offset of 15 μcal s^–1, syringe speed of 250 rpm, preinjection delay of 300 s, and a recording interval of 2 s. The thermodynamic parameters of binding were obtained by fitting the experimental thermogram (Origin 7.0 software) to the “one set of sites” model supplied by the equipment after subtracting the heat of dilution. […] Titrations of MazFE24A with SamF were carried out by 20 injections of 15 μL of SamF (225 μM) to a 28 μM MazFE24A solution contained in the calorimetric cell. Samples of MazFE24A and SamF were prepared in the same buffer with a final pH of about 7.10 (30 mM NaHPO4, 4 mM NH4HCO3, 60 mM NaCl, 0.3 mM EDTA, and 2.4 mM DTT).

The nature of data set [2]: Solubility of the purified peptide. The data set is classed as physicochemical.
Data set [3] is described as follows: CD spectroscopy, α-helix content by K2D2 deconvolution. The data set is classed as physicochemical. Particulars: 0.25 mg/mL in 10 mM NaHPO4, CD deconvolution with K2D2. How it is done:
CD spectra were recorded in a Jasco 815 spectropolarimeter with a 0.25 mg/mL concentrated sample of SamF in 10 mM NaHPO4 buffer. CD spectra were recorded with 1 nm data pitch, 1 s of integration time, scanning speed of 50 nm/min, and wavelength range from 200 to 260 nm. The final spectrum is the average of eight accumulations. The peptide spectrum was subtracted from that of the buffer and smoothed by the Savitzky-Golay method.

Data set [4] deals with T1, MazFE24A. Kind of data set: Competition ligand binding by displacement ITC (MazE vs SamF). Particulars: 50 μM MazE titrated into 10 μM MazFE24A with 0, 10 or 30 μM SamF. An excerpt: Raw heats were integrated and fitted by a least-squares algorithm to the “one set of sites” model to calculate thermodynamic parameters after subtracting the heat of dilution.
Another data set has as its target T2, His^6-MazF (Escherichia coli, UniProt P0AE70).
T2 construct: made in house
T2 sequence (P0AE70 1-111): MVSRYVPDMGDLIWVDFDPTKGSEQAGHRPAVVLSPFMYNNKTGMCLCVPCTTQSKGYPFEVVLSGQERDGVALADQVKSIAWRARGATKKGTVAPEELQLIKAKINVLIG
Put plainly: His6-MazF enzyme activity with fluorescence-suppressed chimeric DNA/RNA substrate. The data set is classed as biochemical. As to the method:
Toxin activity was assessed with a chimeric DNA/RNA substrate labeled with a fluorophore on the 5′ end and a quencher on the 3′ end (Tables S1–S13) as described. The reaction was performed in 50 mM Tris, pH 7, containing 1 mM EDTA in a 96-well plate and in a final volume of 100 μL. The buffer was initially equilibrated at 35 °C, and His^6-MazF was added to a final concentration of 0.75 μM. Inhibitors were incubated with His^6-MazF for 20 min/35 °C before the reaction was started with 0.5 μM of substrate. Fluorescence intensity was recorded every half minute for 90 min on a SpectraMax Paradigm spectrometer (Molecular Devices) at 35 °C with an excitation wavelength of 488 nm and detection at 520 nm. The fluorescence values of all reactions were subtracted from that of the negative control containing only buffer and substrate. The highest fluorescence value obtained for the reaction catalyzed by His^6-MazF was set to 1, and the fluorescence values obtained for all other reactions were normalized relative to this.
The mechanism of inhibition of the toxin by SamF was determined by measuring the initial enzyme-catalyzed ACA site hydrolysis rates (v 0) in the absence and presence of increasing concentrations of the inhibitor. The concentration of His^6-MazF was 0.75 μM. V 0 was considered as the slope of the catalytic curve (fluorescence increase per time) at the initial moments of the reaction up to a maximum of 5 min, after the addition of the substrate. The Lineweaver–Burk graph was generated by plotting the reciprocal of v 0 as a function of the reciprocal of the substrate concentration in the presence of different amounts of inhibitor.
The IC50 value for the inhibition of MazF was calculated by measuring the v 0 as described above in the presence of different concentrations of the inhibitor. The concentration of His^6-MazF was 0.75 μM, and that of the substrate was 0.5 μM.

Data set [5] concerns the target B2. Put plainly: ITC; MazE (50 μM) in the syringe, 20 injections of 8 μL into 10 μM MazF_(E24A) in the cell; 50 mM NaHPO4 pH 7, 100 mM NaCl, 0.5 mM EDTA, 4 mM DTT; one set of sites model. Particulars: both partners purified.
Data set [6] concerns the target T3, MazF_(E24A) (E. coli toxin MazF with glutamic acid 24 replaced with alanine, His6 tag removed) (E. coli, UniProt P0AE70 1-111, E24A). Put plainly: ITC; in presence of 10 uM SamF.
The target of data set [7] is T3, MazF_(E24A) (E. coli toxin MazF with …). Kind of data set: ITC; in presence of 30 uM SamF.
Data set [8] shares this target. Kind of data set: ITC.
Data set [9] concerns the molecule itself. Kind of data set: SEC-MALS; Superdex 75 10/300 GL in NMR buffer; 100 μL of 200 μM MazF_(E24A) alone or with an equimolar concentration of SamF.
Data set [10] has as its target T4, His^6-MazF (wild-type E. coli toxin MazF) (E. coli, UniProt P0AE70 1-111).
T4 sequence: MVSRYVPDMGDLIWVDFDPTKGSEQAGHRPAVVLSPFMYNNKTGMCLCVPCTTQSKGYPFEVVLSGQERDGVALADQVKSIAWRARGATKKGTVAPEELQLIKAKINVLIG
Kind of data set: cell-based or functional assay.

In data set [11] the target is B2. Put plainly: ITC; SamF (225 μM) in the syringe, 20 injections of 15 μL into 28 μM MazF_(E24A) in the cell; 30 mM NaHPO4, 4 mM NH4HCO3, 60 mM NaCl, 0.3 mM EDTA, 2.4 mM DTT, pH about 7.10; one set of sites model; average of two independent experiments. Particulars: both partners purified.
Data set [12] concerns the target B2. Particulars: both partners purified.
Data set [13] concerns the target T3, MazF_(E24A) (E. coli toxin MazF with …). Kind of data set: ITC. This is another data set of the same source.
Where [14] appears, read: SamF: average of two independent experiments.

Turning to Ac-SHLFWAQFDEYF-NH2 [SamF], at MazFE24A [1] (setting [14]), the TΔS was -3.9 kcal/mol and -3.9 ± 1.9 kcal/mol. Further, at MazFE24A [1] (setting [14]), the ΔH is -11.8 ± 1.6 kcal/mol. Besides, in [2] (neutral pH), the “Solubility at neutral pHs (result in words)” value is on record as “low solubility”. Also, in [2] (pH 8–9), the “Solubility at pHs 8–9 (result in words)” value is recorded as “highly soluble”. Besides, the α-helix content in [3] (pH 7.0, 25 °C) was found to be 82.6%; in [3] (pH 7.6, 25 °C), 39.11%; in [3] (pH 8.0, 25 °C), 23.36%. The “Competition with MazE for binding to MazF (result in words)” value at MazFE24A [4] is “compete for binding to MazF”. In addition, on His^6-MazF (0.75 μM His6-MazF, increasing substrate and inhibitor concentrations, Vmax unaffected, KM enhanced), the “Mechanism of inhibition (Lineweaver–Burk)” value is listed as “competitive inhibition”. Besides, on His^6-MazF (in the presence of about 0.5 μg of E. coli proteins), the “Inhibition of His6-MazF in whole E. coli cell lysate (result in words)” value is listed as “still efficiently able to inhibit”.

As to Ac-SHLFWAQFKEYF-NH2 [SamF_D9K], on MazFE24A [1], the “protein:peptide complex stoichiometry (N)” value was 1.0 ±0.1. Further, at MazFE24A [1] (setting [14]), the TΔS is -2.8 ± 0.9 kcal/mol. The “Inhibition of His6-MazF catalysis (result in words)” value at His^6-MazF (0.75 μM His6-MazF, 0.5 μM substrate, 50 mM Tris pH 7, 35 °C, 20 min preincubation, fluorescence over 90 min) was “still able to prevent MazF catalysis”.

B1: MazE (E. coli antitoxin) (natural protein, UniProt P0AE72 1-82, looked up)
chain: MIHSSVKRWGNSPAVRIPATLMQALNLNIDDEVKIDLVDGKLIIEPVRKEPVFTLAELVNDITPENLHENIDWGEPKDKEVW
notes: also called full-length MazE; the antitoxin
With B1, the dH in data set [5] is -25.6 ± 1.7 kcal/mol. Also, the “stoichiometry N” value in data set [5] was 0.5. The dissociation constant (Kd) in [6] is 0.006 µM; in [7], 0.002 µM; in data set [8], 0.005 µM.

Regarding B2, the “stoichiometry N” value in [9] worked out at 2.

B3: Small Antitoxin of MazF (SamF), synthetic peptide Ac-SHLFWAQFDEYF-NH2 (peptide)
peptide: Ac-SHLFWAQFDEYF-NH2
notes: also called synthetic SamF; the synthetic peptide; source: synthetic peptide (microwave-assisted solid phase, RP-HPLC purified)
In the case of B3, the “IC50 of inhibition of His6-MazF (0.75 μM) cleavage of a fluorescence-suppressed DNA–RNA chimeric substrate (0.5 μM)” value in data set [10] worked out at 2.17 µM. Further, in [11], binding was put at a Kd of 2.5 ± 0.7 µM, the dH was -11.8 kcal/mol and the “stoichiometry N” value came to 1.

B4: SamF D9K mutant peptide (peptide)
peptide: Ac-SHLFWAQFKEYF-NH2
notes: the substitution is still to be applied; source: synthetic peptide
As to B4, the “fold change of KD against SamF” value in data set [12] is 2 fold. The equilibrium dissociation constant (Kd) in data set [13] was 6.6 µM.
